Laboratory results from ChEMBL document CHEMBL3638482, “2,3-disubstituted pyrazinesulfonamides as CRTH2 inhibitors” (2014).

Target: T1, Prostaglandin D2 receptor 2 (Homo sapiens, UniProt Q9Y5Y4)
T1 sequence (Q9Y5Y4 whole entry): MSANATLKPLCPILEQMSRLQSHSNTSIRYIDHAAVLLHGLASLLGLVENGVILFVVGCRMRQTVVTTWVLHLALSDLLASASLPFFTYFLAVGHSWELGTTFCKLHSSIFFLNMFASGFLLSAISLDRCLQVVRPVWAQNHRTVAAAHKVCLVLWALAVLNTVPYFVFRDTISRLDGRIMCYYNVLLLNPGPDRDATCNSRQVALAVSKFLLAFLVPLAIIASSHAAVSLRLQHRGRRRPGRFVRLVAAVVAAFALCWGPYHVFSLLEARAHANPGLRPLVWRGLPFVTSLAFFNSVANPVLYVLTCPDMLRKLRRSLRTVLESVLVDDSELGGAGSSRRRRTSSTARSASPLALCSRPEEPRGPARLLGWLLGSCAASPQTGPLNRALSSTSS
Assay: The inhibitory activity can be investigated by a radioligand binding assay (Sawyer et al., Br. J. Pharmocol 2002, 137, 1163-72). The radioligand binding assay was performed at room temperature in binding buffer (10 mM HEPES/KOH pH […], with protease inhibitor cocktail tablets), containing 1.5 nM [3H]PGD2 (Amersham, 156 Cie/mmol), and 10 ug of hCRTH2 HEK293 (EBNA) cell membrane protein in a final volume of 100 ul in 96 well plates (Corning, USA). Non-specific binding was determined in the presence of 1 uM PGD2 (Cayman, USA). Competing pyrazine sulfonamides were diluted in dimethylsulphoxide so that the total volume of dimethylsulfoxide was kept constant at 1% dimethylsulphoxide (Me2SO). 10 ul of the pyrazine sulfonamides were added. Incubation (60 min at room temperature) was terminated by rapid filtration through 96 wells hydrophobic GF/C Unifilter plates.

## COc1ccc(OCc2ccc(-c3nccnc3NS(=O)(=O)c3ccccc3C(F)(F)F)cc2)cc1
  Ki: 2600 nM

## O=S(=O)(Nc1nccnc1-c1ccc(COc2cccc(Cl)c2)cc1)c1ccccc1C(F)(F)F
  Ki: 2900 nM

## O=S(=O)(Nc1nccnc1-c1ccc(CN(Cc2ccccc2)c2ccccn2)cc1)c1ccccc1Cl
  Ki: 2640 nM

## O=S(=O)(Nc1nccnc1-c1ccc(CN(Cc2ccccc2)c2ccccn2)cc1)c1ccccc1C(F)(F)F
  Ki: 4440 nM

## CN(Cc1ccc(-c2nccnc2NS(=O)(=O)c2ccccc2C(F)(F)F)cc1)c1ccc(Cl)cc1Cl
  Ki: 2820 nM

## CN(Cc1ccc(-c2nccnc2NS(=O)(=O)c2ccccc2Cl)cc1)c1ccc(C#N)cc1
  Ki: 1490 nM

## O=S(=O)(Nc1nccnc1-c1ccc(Cn2c(-c3ccccn3)cc3ccccc32)cc1)c1ccccc1C(F)(F)F
  Ki: 850 nM

## CN(Cc1ccc(-c2nccnc2NS(=O)(=O)c2ccccc2Cl)cc1)c1ccc(F)cc1F
  Ki: 2950 nM

## CN(Cc1ccc(-c2nccnc2NS(=O)(=O)c2ccccc2C(F)(F)F)cc1)c1cccc(F)c1
  Ki: 700 nM

## CCN(Cc1ccc(-c2nccnc2NS(=O)(=O)c2ccccc2C(F)(F)F)cc1)c1ccccc1
  Ki: 590 nM

## N#Cc1ccc(OCc2ccc(-c3nccnc3NS(=O)(=O)c3ccccc3C(F)(F)F)cc2)cc1
  Ki: 1590 nM

## O=S(=O)(Nc1nccnc1-c1ccc(COc2ccc(Cl)nc2)cc1)c1ccccc1C(F)(F)F
  Ki: 720 nM

## O=S(=O)(Nc1nccnc1-c1ccc(CN2CCOc3ccccc32)cc1)c1ccccc1C(F)(F)F
  Ki: 620 nM

## O=S(=O)(Nc1nccnc1-c1ccc(COc2ccc(F)cc2)cc1)c1ccccc1C(F)(F)F
  Ki: 480 nM

## CN(Cc1ccc(-c2nccnc2NS(=O)(=O)c2ccccc2C(F)(F)F)cc1)c1ccc(Cl)c(Cl)c1
  Ki: 1580 nM

## O=S(=O)(Nc1nccnc1-c1ccc(Cn2ccc3cc(F)ccc32)cc1)c1ccccc1C(F)(F)F
  Ki: 950 nM

## O=S(=O)(Nc1nccnc1-c1ccc(CN2CCc3ccccc32)cc1)c1ccccc1C(F)(F)F
  Ki: 2690 nM

## CN(Cc1ccc(-c2nccnc2NS(=O)(=O)c2ccccc2C(F)(F)F)cc1)c1ccc(C#N)cc1
  Ki: 470 nM

## O=S(=O)(Nc1nccnc1-c1ccc(Cn2ccc3ccc(F)cc32)cc1)c1ccccc1C(F)(F)F
  Ki: 1930 nM

## O=S(=O)(Nc1nccnc1-c1ccc(COc2ccccc2)cc1)c1ccccc1C(F)(F)F
  Ki: 1320 nM

## Cc1cc2cc(Cl)ccc2n1Cc1ccc(-c2nccnc2NS(=O)(=O)c2ccccc2C(F)(F)F)cc1
  Ki: 4650 nM

## Cc1cc2ccccc2n1Cc1ccc(-c2nccnc2NS(=O)(=O)c2ccccc2C(F)(F)F)cc1
  Ki: 3060 nM

## CN(Cc1ccc(-c2nccnc2NS(=O)(=O)c2ccccc2C(F)(F)F)cc1)c1ccc(Cl)cc1
  Ki: 1470 nM

## COc1ccc2c(c1)cc(C)n2Cc1ccc(-c2nccnc2NS(=O)(=O)c2ccccc2Cl)cc1
  Ki: 2210 nM
